Entries after “also recorded” stand apart in the source; their conditions may differ. Like-named read-outs stand apart in the source and are kept apart here.
How the values were obtained:
[1] = system: pancreatic cancer cell lines; test: Matrigel invasion assay; format: cell-based, human
Procedure: Matrigel invasion assay: Cell invasion was assayed in BD BioCoat Matrigel invasion chambers (BD Biosciences; 24 wells, 8 μm pore size) as described previously (26). […] Non-invaded cells were removed from the upper surface of the membrane with a cotton swab, and cells on the lower surface of the membrane were fixed and stained with H&E. Three random fields per chamber were counted. Data were shown as mean±S.D. of triplicate determinations. […] For this assay, ten different pancreatic cancer cell lines in a matrigel invasion chamber were used.

MMP-7 = molecular target: T1, MMP-7 (Homo sapiens, UniProt P09237); test: MMP profiling, IC50 (fluorimetric MMP inhibitor profiling kit); format: biochemical
T1 construct: purchased Enzo Life Science, Farmingdale, NY
T1 sequence (P09237 95-267): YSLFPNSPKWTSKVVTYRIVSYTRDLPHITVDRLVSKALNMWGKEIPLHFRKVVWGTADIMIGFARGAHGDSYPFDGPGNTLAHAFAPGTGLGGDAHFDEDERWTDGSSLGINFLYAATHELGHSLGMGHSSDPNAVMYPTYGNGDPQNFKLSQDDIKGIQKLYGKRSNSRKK
Procedure: (§1) After administration of fluorogenic substrate, a velocity of fluorescent increase was measured using excitation/emission=320/405 nm.

MMP-3 = molecular target: T2, MMP-3 (Homo sapiens, UniProt P08254); test: as above; format: biochemical
T2 construct: purchased Enzo Life Science, Farmingdale, NY
T2 sequence (P08254 100-477): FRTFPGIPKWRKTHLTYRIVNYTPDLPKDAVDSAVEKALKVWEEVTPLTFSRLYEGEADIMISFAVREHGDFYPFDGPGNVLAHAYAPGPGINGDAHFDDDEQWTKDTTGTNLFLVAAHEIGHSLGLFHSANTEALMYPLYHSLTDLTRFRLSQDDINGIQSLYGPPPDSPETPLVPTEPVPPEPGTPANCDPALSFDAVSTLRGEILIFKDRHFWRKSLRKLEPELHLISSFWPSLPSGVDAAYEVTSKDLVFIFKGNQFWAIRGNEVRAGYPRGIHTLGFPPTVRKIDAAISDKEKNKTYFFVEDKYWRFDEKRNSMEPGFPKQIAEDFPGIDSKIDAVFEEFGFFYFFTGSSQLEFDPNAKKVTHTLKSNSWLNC
Procedure: as §1

MMP-9 [2] = molecular target: T3, MMP-9 (Homo sapiens, UniProt P14780); test: as above; format: biochemical
T3 construct: purchased Enzo Life Science, Farmingdale, NY
T3 sequence (P14780 94-707): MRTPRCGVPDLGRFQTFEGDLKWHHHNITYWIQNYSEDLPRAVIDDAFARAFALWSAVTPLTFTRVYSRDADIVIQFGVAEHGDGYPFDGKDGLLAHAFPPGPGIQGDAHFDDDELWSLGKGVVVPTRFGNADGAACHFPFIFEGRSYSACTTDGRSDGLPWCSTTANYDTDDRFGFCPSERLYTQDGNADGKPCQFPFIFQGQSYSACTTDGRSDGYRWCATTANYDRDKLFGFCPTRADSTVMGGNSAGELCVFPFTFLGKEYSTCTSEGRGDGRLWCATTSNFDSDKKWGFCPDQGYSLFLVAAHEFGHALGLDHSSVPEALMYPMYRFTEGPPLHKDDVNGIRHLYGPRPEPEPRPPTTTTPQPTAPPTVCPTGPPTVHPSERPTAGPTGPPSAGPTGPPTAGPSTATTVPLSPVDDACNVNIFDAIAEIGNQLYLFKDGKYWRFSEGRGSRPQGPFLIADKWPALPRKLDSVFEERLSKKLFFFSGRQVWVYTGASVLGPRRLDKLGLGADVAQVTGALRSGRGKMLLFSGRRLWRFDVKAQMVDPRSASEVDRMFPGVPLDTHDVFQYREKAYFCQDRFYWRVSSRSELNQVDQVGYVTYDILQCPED
Procedure: as §1

MMP-2 = molecular target: T4, MMP-2 (Homo sapiens, UniProt P08253); test: as above; format: biochemical
T4 construct: purchased Enzo Life Science, Farmingdale, NY
T4 sequence (P08253 110-660): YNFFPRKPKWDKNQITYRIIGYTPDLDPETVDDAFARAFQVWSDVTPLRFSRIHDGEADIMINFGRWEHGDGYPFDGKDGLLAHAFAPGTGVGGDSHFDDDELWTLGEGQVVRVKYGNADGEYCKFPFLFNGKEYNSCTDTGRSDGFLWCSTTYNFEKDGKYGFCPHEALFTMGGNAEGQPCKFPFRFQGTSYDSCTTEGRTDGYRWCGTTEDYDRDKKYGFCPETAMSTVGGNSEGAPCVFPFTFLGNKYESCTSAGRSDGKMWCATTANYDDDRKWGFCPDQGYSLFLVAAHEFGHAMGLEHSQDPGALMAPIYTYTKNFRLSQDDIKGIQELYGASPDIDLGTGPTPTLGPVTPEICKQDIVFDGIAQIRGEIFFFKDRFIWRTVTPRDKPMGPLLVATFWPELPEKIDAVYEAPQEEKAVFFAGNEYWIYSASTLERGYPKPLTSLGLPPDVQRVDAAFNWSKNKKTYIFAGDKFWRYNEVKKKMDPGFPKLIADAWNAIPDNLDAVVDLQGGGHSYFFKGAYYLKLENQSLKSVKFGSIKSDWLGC
Procedure: as §1

MMP-14 [3] = molecular target: T5, MMP-14 (Homo sapiens, UniProt P50281); test: as above; format: biochemical
T5 construct: purchased Enzo Life Science, Farmingdale, NY
Procedure: as §1

MMP-8 = molecular target: T6, MMP-8 (Homo sapiens, UniProt P22894); test: as above; format: biochemical
T6 construct: purchased Enzo Life Science, Farmingdale, NY
T6 sequence (P22894 101-467): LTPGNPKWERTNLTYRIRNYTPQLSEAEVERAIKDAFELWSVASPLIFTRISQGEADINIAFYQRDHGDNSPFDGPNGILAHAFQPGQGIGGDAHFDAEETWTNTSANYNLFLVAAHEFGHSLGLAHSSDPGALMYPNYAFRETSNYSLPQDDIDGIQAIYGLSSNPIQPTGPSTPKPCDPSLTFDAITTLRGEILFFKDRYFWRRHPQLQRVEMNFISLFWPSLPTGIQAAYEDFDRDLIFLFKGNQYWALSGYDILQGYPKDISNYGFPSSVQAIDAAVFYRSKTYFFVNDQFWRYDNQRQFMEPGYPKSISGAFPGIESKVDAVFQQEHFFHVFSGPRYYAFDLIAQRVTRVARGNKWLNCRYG
Procedure: as §1

MMP-13 = molecular target: T7, MMP-13 (Homo sapiens, UniProt P45452); test: as above; format: biochemical
T7 construct: purchased Enzo Life Science, Farmingdale, NY
Procedure: as §1

MMP-10 = molecular target: T8, MMP-10 (Homo sapiens, UniProt P09238); test: as above; format: biochemical
T8 construct: purchased Enzo Life Science, Farmingdale, NY
T8 sequence (P09238 99-476): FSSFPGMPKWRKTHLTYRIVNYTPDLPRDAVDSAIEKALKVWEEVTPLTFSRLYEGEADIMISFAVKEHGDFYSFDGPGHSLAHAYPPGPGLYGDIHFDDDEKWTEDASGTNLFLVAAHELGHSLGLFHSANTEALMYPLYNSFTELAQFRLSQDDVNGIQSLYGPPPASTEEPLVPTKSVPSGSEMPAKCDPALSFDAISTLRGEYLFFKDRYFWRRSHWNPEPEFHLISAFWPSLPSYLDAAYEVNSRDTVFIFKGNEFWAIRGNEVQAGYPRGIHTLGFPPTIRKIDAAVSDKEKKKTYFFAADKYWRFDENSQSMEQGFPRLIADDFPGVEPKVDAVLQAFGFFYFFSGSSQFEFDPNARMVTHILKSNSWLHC
Procedure: as §1

MMP-1 = molecular target: T9, MMP-1 (Homo sapiens, UniProt P03956); test: as above; format: biochemical
T9 construct: purchased Enzo Life Science, Farmingdale, NY
T9 sequence (P03956 100-469): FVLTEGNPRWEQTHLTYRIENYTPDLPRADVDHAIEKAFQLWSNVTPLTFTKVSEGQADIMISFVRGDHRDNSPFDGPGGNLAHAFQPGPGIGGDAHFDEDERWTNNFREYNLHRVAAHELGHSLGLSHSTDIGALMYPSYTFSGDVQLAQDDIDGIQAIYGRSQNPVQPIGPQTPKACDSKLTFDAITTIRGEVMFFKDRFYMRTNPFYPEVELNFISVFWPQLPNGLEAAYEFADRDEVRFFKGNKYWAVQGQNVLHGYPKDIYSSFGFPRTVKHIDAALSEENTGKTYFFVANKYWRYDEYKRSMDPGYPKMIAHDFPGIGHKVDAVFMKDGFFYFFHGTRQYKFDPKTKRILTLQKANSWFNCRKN
Procedure: as §1

MMP-12 [4] = molecular target: T10, MMP-12 (Homo sapiens, UniProt P39900); test: as above; format: biochemical
T10 construct: purchased Enzo Life Science, Farmingdale, NY
T10 sequence (P39900 106-470): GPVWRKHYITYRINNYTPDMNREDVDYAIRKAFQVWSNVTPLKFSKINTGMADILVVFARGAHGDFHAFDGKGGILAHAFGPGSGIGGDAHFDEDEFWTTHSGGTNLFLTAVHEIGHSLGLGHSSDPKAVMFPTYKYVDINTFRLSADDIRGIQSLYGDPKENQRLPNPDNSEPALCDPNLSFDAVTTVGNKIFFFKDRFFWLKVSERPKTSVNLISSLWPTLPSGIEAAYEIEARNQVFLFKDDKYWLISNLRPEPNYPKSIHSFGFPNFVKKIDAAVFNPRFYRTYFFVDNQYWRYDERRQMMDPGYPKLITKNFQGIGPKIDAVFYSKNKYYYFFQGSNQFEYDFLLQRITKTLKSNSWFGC
Procedure: as §1

MMP-9 [5] = test: qRT-PCR of MMP-9 mRNA in pancreatic cancer cell lines; format: cell-based, human; settings: highest concentration (5 mM), both cell lines
Procedure: (§2) Quantitative Reverse transcription-PCR (qRT-PCR): qRT-PCR was performed as described previously using QuantiTect SYBR Green PCR Kits (QIAGEN, Valencia, CA) (28). Gene specific primers for human MMP-9, MMP-12, MMP-14 and I3-actin were either purchased from QIAGEN or synthesized at the CBER core facility. Gene expression was normalized to β-actin before the fold change in gene expression was determined.
(§3) Since MMP-9 plays a central role in pancreatic cancer invasion, MMP-9 mRNA and protein levels were examined in both cell lines.

MMPs [6] = test: MMP activity in pancreatic cancer cell lines (fluorogenic peptide substrate); format: cell-based, human; settings: two representative cell lines, concentration-dependent
Procedure: (§4) Measurement of MMP activity: MMPs activity was measured by Mca-KPLGL-Dpa-AR-NH2 Fluorogenic Peptide Substrate (R&D systems, Emeryville, CA). Total cell protein from each pancreatic cancer cell line was collected using lysis buffer (containing 50 mM Tris-HCl, 10 mM CaCl2, 0.05% Brij35 and 0.25% Triton-X) without an MMP inhibitor. Substrate and 10 μg of total cell protein in the buffer were mixed in a black-wall 96-well plate. After 1 hour incubation, fluorescence units were determined using excitation/emission=320/405 nm.

[7] = General condition, body weight, serum enzymes and histology of treated tumor-bearing mice; format: in vivo
Procedure: (§5) Measurement of metastasis, survival and body weight of animals implanted with orthotopic pancreatic cancer in mouse model: Female nude nu/nu mice between ages 5 and 6 weeks were maintained in a barrier facility in HEPA-filtered rack. All animal studies were conducted under approved protocol #2000-06 by the CBER Institutional Animal Care and Use Committee in accordance with the principles and procedures outlined in the NIH Guideline for the Care and Use of Laboratory Animals. For orthotopic tumor cell injection, the pancreas was carefully exposed, and 2.0×10^6 of MIA-PaCa2 and H5766T cells were injected into the organ. The pancreas was then returned to the peritoneal cavity, and the abdominal wall and skin were closed with skin clips (29, 30). […] At day 30, mice were sacrificed and the number of metastatic nodules visible by naked eye and whose sizes were >5 mm in diameter counted. The total weight of primary tumor and metastatic nodules were also measured. Pictures were taken immediately after sacrificing the animals. Additionally, mouse survival time was monitored in an independent experiment. Mice were sacrificed when they had severe ascites or cachexia.
Measurement of enzymes in mouse serum: Mouse blood was collected from the tail vein. Serum levels of alanine aminotransferase (ALT), creatine kinase (CK), aldolase and creatinine (Cr) were measured using different kits obtained from Pointe Scientific, Inc. (Canton, MI) and Caldon Biotech, Inc. (Vista, Ca), following the manufacturer's instruction.
The general condition and body weight of mice throughout the experimental period was also monitored. […] Similarly, there was no alteration in serum enzymes representing liver function (ALT) or muscle damage (Aldolase) nor evidence of skeletal muscle damage or kidney function (creatinine kinase and creatinine) in the cysteamine-treated groups.

MMP-9 [8] = test: qRT-PCR of MMP-9 mRNA in primary orthotopic tumors; format: in vivo, mice; settings: tumors harvested day 30
Procedure: as §2

MMPs [9] = test: MMP activity in primary orthotopic tumors; format: in vivo, mice; settings: H5766T and MIA-PaCa2 tumors, 100 and 250 mg/Kg, day 30
Procedure: as §4

intracellular cystine = settings: cited from earlier work
[10] = cited from earlier work
[11] = system: pancreatic cancer cell lines; test: Cell migration assay (wound healing); format: cell-based, human
Procedure: Cell Migration Assay: Cell migration assay is a classical wound healing assay (25). For this assay, cells were cultured in 10 cm petri dishes until they were completely confluent. […] Five random fields were selected and pictures were taken using an inverted microscope. The average area (mm 2) of the gap between the cell layers was calculated using IPLab imaging software (BD Biosciences-Bioimaging, Rockville, MD). […] For the migration assay, a wound healing assay was used (described above in Example 1).

MMP-9 [12] = test: Gelatin gel zymography of cell lysates; format: cell-based, human; settings: cell lines in vitro, dose dependent
Procedure: (§6) Briefly, 50 μg of total protein was electrophoresed on 10% SDS-PAGE containing 0.1% gelatin as substrate. After washing with 1% Triton X-100 in 50 mM Tris/HCl, pH 7.5 for 1 hr to remove SDS, the gels were incubated overnight at 37° C. in 50 mM Tris/HCl, pH 7.5, containing 150 mM NaCl, 10 mM CaCl2 and 0.1% Triton X-100, prior to staining with simply blue safe stain. The gels were washed with deionized water at room temperature. […] Relevant band intensities were quantified by scanning densitometric analysis and normalized to cell number.
as §3

MMP-9 [13] = test: ELISA of MMP-9 protein in primary orthotopic tumors; format: in vivo, mice; settings: tumors harvested day 30
Procedure: (§7) Enzyme-Linked ImmunoSorbent Assay (ELISA): The NIMP-9 protein level was determined using Human total MMP-9 DuoSet kit (R&D systems, Emeryville, CA) following the manufacturer's instruction. Ten microgram of total protein was aliquoted in each well and the MMP-9 concentration was determined by the colorimetric method.

MMP-12 [14] = test: qRT-PCR of MMP-12 mRNA in pancreatic cancer cell lines; format: cell-based, human; settings: highest concentration, in vitro
Procedure: as §2, §3

MMP-9 [15] = test: ELISA of MMP-9 protein in pancreatic cancer cell lines; format: cell-based, human; settings: highest concentration (5 mM), both cell lines
Procedure: as §7, with “method. […] Since MMP-9 plays a central role in pancreatic cancer invasion, MMP-9 mRNA and protein levels were examined in both cell lines.” for “method.”

MMP-9 [16] = test: Zymography for MMP-9 in primary orthotopic tumors; format: in vivo, mice; settings: tumors harvested day 30
Procedure: as §6

MIA-PaCa2 tumor = test: Orthotopic pancreatic cancer mouse model: metastasis, ascites, survival; format: in vivo, mice
Procedure: as §5
(§8) At day 30, the number and weight of the primary tumor and metastatic nodules were measured. […] The survival of mice among different treatment groups was also determined.

H5766T tumor = test: as above; format: in vivo, mice
Procedure: as §5, §8

[17] = in vivo; cited from earlier work
MMPs [18] = system: T11, MMPs; test: MMP profiling, summary over the whole MMP panel; format: biochemical; settings: MMP-1 to MMP-14 of Table 1; read-out: IC50 against each MMP enzymatic activity (span over the panel)
T11 construct: rows headed: IC50 against each MMP enzymatic activity (span over the panel)
Procedure: as §1, §3

MMPs [19] = system: T12, MMPs; test: MMP profiling, summary over the whole MMP panel; format: biochemical
T12 construct: rows headed: anti-MMP activity, IC50 range
Procedure: as §1, §3

MMP-14 [20] = test: qRT-PCR of MMP-14 mRNA in pancreatic cancer cell lines; format: cell-based, human; settings: highest concentration, in vitro
Procedure: as §2, §3

[21] = cited from earlier work; remark: listed apart in the source
MMPs [22] = settings: not tested in Table 1; cited from earlier work
[23] = delivery to the small intestine (WO 2007/089670)

NCCS [Cysteamine]
lowest concentration that significantly inhibited cell invasion ([1]; all ten pancreatic cancer cell lines, 24 hours): 0.05 mM
concentration that sufficiently inhibited cancer cell invasion in vitro ([1]; discussion): 50 µM
IC50 (MMP-7): 40 µM
IC50 (MMP-3): 330 µM
IC50 (MMP-9 [2]): 200 µM
IC50 (MMP-2): 38 µM
IC50 (MMP-14 [3]): 91 µM
IC50 (MMP-8): 240 µM
IC50 (MMP-13): 460 µM
IC50 (MMP-10): 310 µM
IC50 (MMP-1): 290 µM
IC50 (MMP-12 [4]): 60 µM
mRNA level of MMP-9 (MMP-9 [5]): modestly increased; also recorded: modestly to moderately upregulated
MMP activity in pancreatic cancer cell lines (MMPs [6]): inhibited
dose tolerated without visible, biochemical or histological evidence of toxicity ([7]; mice): up to 250 mg/kg/day
organ toxicity by histological examination ([7]; mouse, in vivo): no organ toxicity
serum ALT (liver function) ([7]; mouse, in vivo): no alteration
serum Aldolase (muscle damage) ([7]; mouse, in vivo): no alteration
serum creatinine (kidney function) ([7]; mouse, in vivo): no alteration
serum creatinine kinase ([7]; mouse, in vivo): no alteration
adverse effects (general appearance, body weight, muscle damage, serum enzymes, serum creatinine) ([7]; mouse, in vivo, 250 mg/kg/day): no adverse effects
mRNA level of MMP-9 in primary tumors (MMP-9 [8]): did not affect
MMPs activity in primary orthotopic tumors (MMPs [9]): decreased
time to decrease in leukocyte cystine (intracellular cystine; [23]): within an hour
depletion of intracellular cystine (intracellular cystine; taken regularly, circulating white blood cells): up to 90%
AUC [10, 23]: increases AUC
cysteamine plasma level ([10]; oral, every 6 hours, 60 to 90 mg/kg of body weight per day): ≤ 50 µM
concentration at which cell migration was significantly inhibited ([11]; all ten cell lines, 24 hours): ≥ 0.05 mM
concentration that sufficiently inhibited cancer cell migration in vitro ([11]; discussion): 50 µM
zymographic gelatin hydrolyzing activity, pro and active MMP-9 (MMP-9 [12]): decreased significantly; also recorded: dose dependent decrease
protein level of MMP-9 in primary tumors (MMP-9 [13]): did not affect
mRNA of MMP-12 (MMP-12 [14]): modest increase; also recorded: modestly upregulated
protein level of MMP-9 (MMP-9 [15]): modestly increased; also recorded: modestly to moderately upregulated
gelatinase activity, zymography for MMP-9, primary tumors (MMP-9 [16]): dose dependent decrease
mouse survival time (MIA-PaCa2 tumor; MIA-PaCa2, 100 mg/kg/day, FIG. 1B): significantly prolonged
ascites in peritoneal cavity (MIA-PaCa2 tumor; MIA-PaCa2, 100 and 250 mg/kg/day): no mice developed ascites
number of metastatic nodules (MIA-PaCa2 tumor; MIA-PaCa2, dose-dependent, day 30): significantly decreased
decrease in total weight of metastatic nodules (MIA-PaCa2 tumor; MIA-PaCa2, highest dose (250 mg/kg/day), day 30): ~90%
size and weight of the primary tumor vs control (MIA-PaCa2 tumor; MIA-PaCa2, s.c. twice daily from day 4, day 30): did not show any difference
mouse survival time (H5766T tumor; 100 mg/kg/day, FIG. 1A): significantly prolonged
decrease in number of metastases (H5766T tumor; 250 mg/kg/day s.c., day 30): ~90%
number of metastases (H5766T tumor; 250 mg/kg/day s.c., day 30 (control 34)): 3.6
ascites in peritoneal cavity (H5766T tumor; 100 and 250 mg/kg/day): no mice developed ascites
number of metastatic nodules (H5766T tumor; dose-dependent, day 30): significantly decreased
size and weight of the primary tumor vs control (H5766T tumor; s.c. twice daily from day 4, day 30): did not show any difference
adverse effects in subjects [17]: only gastrointestinal symptoms
IC50 (MMPs [18]): 38 to 460 µM
anti-MMP activity, IC50 range (MMPs [19]): high μM range
mRNA of MMP-14 (MMP-14 [20]): modest increase; also recorded: modestly upregulated

CNC(=O)[C@H](Cc1ccccc1)NC(=O)[C@H](CC(C)C)[C@H](CSc1cccs1)C(=O)NO [Batimastat]
oral bioavailability ([21]; in vivo, po): poor oral bioavailability

CNC(=O)[C@@H](NC(=O)[C@H](CC(C)C)[C@H](O)C(=O)NO)C(C)(C)C [marimastat]
anti-MMP activity, IC50 range (MMPs [22]): nM to low μM
clinical toxicity ([21]; higher dosage, patients with breast cancer metastasis): high musculoskeletal toxicities
